Test systems include NCI/ADR-RES ovarian; COLO 205 colon; TK-10 renal; MDA-MB-435; 786-0 renal; SNB-75 CNS; HOP-62 NSCLC; SF-268 CNS; NCI-H522 lung; SNB-19 CNS.
Holding throughout (assay): NCI tumour cell line growth inhibition, 48 h

Each structure is given as a SMILES string.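 Interpolation was linear, between the two tested concentrations surrounding the appropriate level; five concentrations were tested over 48 hours in 96-well plates. At the GI50, growth is halved. At the TGI there is no net growth.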

In the case of `Clc1cc(Cl)c(OCCCCCCN2CCNCC2)c(Cl)c1`, the GI50 is 8860 nM in the assay on NCI/ADR-RES ovarian; 1820 nM in the assay on COLO 205 colon; 11800 nM in the assay with TK-10 renal; 2020 nM in the assay with MDA-MB-435; 1730 nM in the assay with 786-0 renal; 2640 nM in the assay with SNB-75 CNS. Besides, the GI50 is 10600 nM in the assay on HOP-62 NSCLC, 5850 nM in the assay with SF-268 CNS, 11100 nM in the assay with NCI-H522 lung and 3870 nM in the assay with SNB-19 CNS. The TGI with NCI/ADR-RES ovarian came to 26100 nM; in the assay with COLO 205 colon, 3580 nM; with TK-10 renal it was 24500 nM; with MDA-MB-435, 4230 nM; with 786-0 renal it was 3240 nM; with SNB-75 CNS, 11700 nM. Besides, the TGI with HOP-62 NSCLC was 26000 nM; in the assay with SF-268 CNS, 21100 nM; in the assay on NCI-H522 lung, 25400 nM; in the assay with SNB-19 CNS, 16300 nM.
Consider `Cc1ccc(C=C2C(Cl)=C(Cl)C(Cl)=C2Cl)cc1`, for which the GI50 with NCI/ADR-RES ovarian is 324 nM; in the assay with COLO 205 colon, 737 nM; in the assay with TK-10 renal, 972 nM; in the assay on MDA-MB-435, 420 nM; with 786-0 renal, 721 nM; with SNB-75 CNS, 1160 nM. In addition, the GI50 is 2130 nM in the assay on HOP-62 NSCLC, 617 nM in the assay on SF-268 CNS, 322 nM in the assay on NCI-H522 lung and 1330 nM in the assay with SNB-19 CNS. The TGI with NCI/ADR-RES ovarian amounted to 1520 nM; in the assay with COLO 205 colon, 2090 nM; in the assay with TK-10 renal it was 2550 nM; in the assay with MDA-MB-435 it was 1600 nM; with 786-0 renal, 1750 nM; with SNB-75 CNS, 2440 nM. The TGI is 4440 nM in the assay with HOP-62 NSCLC, 2280 nM in the assay with SF-268 CNS, 1010 nM with NCI-H522 lung and 2680 nM in the assay on SNB-19 CNS.
Regarding `COc1ccc(NC2=C(I)C(=O)c3ncccc3C2=O)cc1`, the GI50 with NCI/ADR-RES ovarian is 1570 nM; in the assay with COLO 205 colon, 1680 nM; in the assay on TK-10 renal, 2140 nM; in the assay on MDA-MB-435, 253 nM; in the assay with 786-0 renal, 1850 nM; in the assay with SNB-75 CNS, 1400 nM. Further, the GI50 in the assay on HOP-62 NSCLC was 457 nM; in the assay on SF-268 CNS, 1280 nM; in the assay with NCI-H522 lung, 827 nM; in the assay with SNB-19 CNS it was 1180 nM. The TGI amounted to 4410 nM with NCI/ADR-RES ovarian; 3470 nM in the assay on COLO 205 colon; 3960 nM with TK-10 renal; 628 nM in the assay on MDA-MB-435; 4740 nM in the assay on 786-0 renal; 2770 nM in the assay with SNB-75 CNS. The TGI in the assay with HOP-62 NSCLC was 1870 nM; in the assay on SF-268 CNS, 4230 nM; in the assay on NCI-H522 lung, 2530 nM; in the assay on SNB-19 CNS, 3290 nM.
Take `Oc1c(Cl)cc(Cl)cc1/C=N/Nc1nnc(N/N=C/c2cc(Cl)cc(Cl)c2O)c2ccccc12`: the GI50 was 363 nM with NCI/ADR-RES ovarian; 433 nM in the assay with COLO 205 colon; 704 nM in the assay on TK-10 renal; 484 nM with MDA-MB-435; 418 nM in the assay with 786-0 renal; 867 nM in the assay on SNB-75 CNS. Besides, the GI50 is 388 nM in the assay on HOP-62 NSCLC, 407 nM in the assay with SF-268 CNS, 366 nM in the assay with NCI-H522 lung and 505 nM with SNB-19 CNS. For the same compound, the TGI in the assay on NCI/ADR-RES ovarian was over 100000 nM; with COLO 205 colon, over 100000 nM; in the assay with TK-10 renal, over 100000 nM; with MDA-MB-435, over 30900 nM; with 786-0 renal it was over 100000 nM; in the assay with SNB-75 CNS it was over 31100 nM. The TGI is over 28800 nM with HOP-62 NSCLC, over 100000 nM in the assay with SF-268 CNS, 6700 nM in the assay with NCI-H522 lung and over 100000 nM with SNB-19 CNS.
Take `CN(C)CC(=O)Nc1ccc2ncnc(Nc3ccc(Oc4cccc(C(F)(F)F)c4)c(Cl)c3)c2c1`: the GI50 in the assay on NCI/ADR-RES ovarian is 3060 nM; in the assay with TK-10 renal, 1710 nM; in the assay on MDA-MB-435 it was 1660 nM; in the assay on 786-0 renal, 1550 nM; with SNB-75 CNS, 1330 nM; with HOP-62 NSCLC, 2090 nM. In addition, the GI50 is 1970 nM in the assay on SF-268 CNS, 1800 nM with NCI-H522 lung and 3340 nM in the assay with SNB-19 CNS. Moreover, the TGI with NCI/ADR-RES ovarian was 13200 nM; in the assay on TK-10 renal it was 5030 nM; with MDA-MB-435, 3140 nM; with 786-0 renal, 2910 nM; with SNB-75 CNS, 2820 nM; in the assay on HOP-62 NSCLC, 5710 nM. The TGI was 5440 nM in the assay on SF-268 CNS, 5370 nM in the assay on NCI-H522 lung and 14400 nM in the assay with SNB-19 CNS.
Consider `O=C(C=P(c1ccccc1)(c1ccccc1)c1ccccc1)CCl`, for which the GI50 in the assay on NCI/ADR-RES ovarian was 1860 nM; in the assay on COLO 205 colon, 1530 nM; with TK-10 renal, 1690 nM; with MDA-MB-435 it was 894 nM; in the assay with 786-0 renal it was 1610 nM; in the assay on SNB-75 CNS, 1190 nM. In addition, the GI50 in the assay with HOP-62 NSCLC was 2620 nM; in the assay on SF-268 CNS, 1750 nM; in the assay on NCI-H522 lung it was 396 nM; in the assay on SNB-19 CNS, 3550 nM. Also, the TGI in the assay with NCI/ADR-RES ovarian was 10500 nM; in the assay on COLO 205 colon, 3660 nM; in the assay on TK-10 renal, 3120 nM; with MDA-MB-435 it was 2340 nM; with 786-0 renal, 3560 nM; with SNB-75 CNS it was 7570 nM. Besides, the TGI was determined as 7930 nM in the assay on HOP-62 NSCLC, 4010 nM in the assay on SF-268 CNS, 1640 nM with NCI-H522 lung and 15100 nM in the assay on SNB-19 CNS.
Take `O=C(c1ccccc1Cl)n1oc2ccccc2c1=O`: the TGI in the assay on NCI/ADR-RES ovarian, with COLO 205 colon, in the assay on TK-10 renal, in the assay on MDA-MB-435, in the assay on 786-0 renal and in the assay on SNB-75 CNS was over 100000 nM in each case. Moreover, the TGI in the assay on HOP-62 NSCLC, in the assay with SF-268 CNS, with NCI-H522 lung and in the assay with SNB-19 CNS was over 100000 nM in each case.
Consider `COc1cc(/C=C/c2cc(/C=C/c3ccc(O)c(OC)c3)n(C(=O)Nc3ccccc3Cl)n2)ccc1O`, for which the GI50 in the assay on NCI/ADR-RES ovarian was 247 nM; with COLO 205 colon, 1490 nM; with TK-10 renal it was 601 nM; with MDA-MB-435, 73.8 nM; in the assay with 786-0 renal it was 426 nM; in the assay with SNB-75 CNS, 259 nM. Further, the GI50 with HOP-62 NSCLC was 471 nM; with SF-268 CNS it was 529 nM; in the assay with NCI-H522 lung, 112 nM; with SNB-19 CNS, 743 nM. Also, the TGI amounted to 7910 nM in the assay on NCI/ADR-RES ovarian; 2910 nM with COLO 205 colon; 3600 nM with TK-10 renal; 236 nM in the assay on MDA-MB-435; 1570 nM with 786-0 renal; 959 nM in the assay with SNB-75 CNS. Also, the TGI was determined as 1780 nM in the assay with HOP-62 NSCLC, 3180 nM with SF-268 CNS, 672 nM in the assay on NCI-H522 lung and 4230 nM in the assay with SNB-19 CNS.

Source of the values: PubChem BioAssay (NCI).
